# Source: ChEMBL document CHEMBL3997785, “Optimization of 2-Anilino 4-Amino Substituted Quinazolines into Potent Antimalarial Agents with Oral in Vivo Activity” (J Med Chem, 2017)
# Assays:
# [1] = Selectivity index, ratio of EC50 for human HepG2 cells to EC50 for Plasmodium falciparum 3D7 asexual blood stage infected in human erythrocytes; assay type: toxicity, cell-based; conditions: read-out: Ratio EC50
# [2] = tested on: HepG2; assay: Cytotoxicity against human HepG2 cells assessed as growth inhibition after 48 hrs by Cell Titer-Glo assay; assay type: cell-based; conditions: HepG2, 48 h
# [3] = tested on: Plasmodium falciparum; assay: Antimalarial activity against Plasmodium falciparum 3D7 asexual blood stage infected in human erythrocytes incubated for 72 hrs by LDH assay; assay type: functional, cell-based; conditions: 3D7, 72 h
# [4] = Aqueous solubility of the compound at pH 6.5 by nephelometry; assay type: physicochemical
# [5] = Intrinsic clearance in mouse liver microsomes at 1 uM in presence of NADPH by LC-MS method; assay type: ADME, microsome; conditions: read-out: CLH
# [6] = Half life in mouse liver microsomes at 1 uM in presence of NADPH by LC-MS method; assay type: ADME, microsome
# [7] = Half life in human liver microsomes at 1 uM in presence of NADPH by LC-MS method; assay type: ADME, microsome
# [8] = Intrinsic clearance in human liver microsomes at 1 uM in presence of NADPH by LC-MS method; assay type: ADME, microsome; conditions: read-out: CLH
# [9] = Hepatic extraction ratio in mouse liver microsomes at 1 uM in presence of NADPH by LC-MS method; assay type: ADME, microsome; conditions: read-out: ERH
# [10] = Hepatic extraction ratio in human liver microsomes at 1 uM in presence of NADPH by LC-MS method; assay type: ADME, microsome; conditions: read-out: ERH
# [11] = Aqueous solubility of the compound at pH 2 by nephelometry; assay type: physicochemical
# [12] = tested on: Plasmodium falciparum; assay: Antimalarial activity against chloroquine and mefloquine resistant Plasmodium falciparum W2mef infected in human erythrocytes incubated for 72 hrs by LDH assay; assay type: functional, cell-based
# [13] = tested on: Plasmodium falciparum; assay: Antimalarial activity against Plasmodium falciparum NF54 harboring pfs16-LUC-GFP early stage 1 to 3 gametocytes after 48 hrs by MitoTracker Red staining based confocal microscopy; assay type: functional; conditions: NF54, 48 h
# [14] = tested on: Plasmodium falciparum; assay: Antimalarial activity against Plasmodium falciparum NF54 harboring pfs16-LUC-GFP late stage 4 to 5 gametocytes after 48 hrs by MitoTracker Red staining based confocal microscopy; assay type: functional; conditions: NF54, 48 h
# [15] = tested on: Plasmodium falciparum; assay: Antimalarial activity against Plasmodium falciparum NF54 harboring pfs16-LUC-GFP ring stage gametocytes after 24 hrs by MitoTracker Red staining based confocal microscopy; assay type: functional; conditions: NF54, 24 h
SMILES,selectivity ratio [1],EC50 [2] [nM],EC50 [3] [nM],also measured
COc1ccc(Nc2nc(NCc3ccco3)c3ccccc3n2)cc1,20,2500,124,–
COc1cccc(Nc2nc(NCC3CCCO3)c3ccccc3n2)c1 (configuration not stated),33,7700,–,–
COc1ccc(Nc2nc(NCc3ccccc3)c3ccccc3n2)cc1,32,8500,264,solubility kinetic [4]: 1.6 to 3.1 µM; microsomal CLint at 1 µM [5]: 123 µL/min/mg; half-life at 1 µM [6]: 14 min; half-life at 1 µM [7]: 65 min; microsomal CLint at 1 µM [8]: 27 µL/min/mg; hepatic extraction ratio at 1 µM [9]: 0.73; hepatic extraction ratio at 1 µM [10]: 0.51; solubility kinetic [11]: 25 to 50 µM
Fc1ccc(Nc2nc(NCc3ccccc3)c3cccnc3n2)cc1,–,12400,636,–
COc1cccc(Nc2nc(NCc3ccco3)c3ccccc3n2)c1OC,–,20100,1300,–
CN1CCC(Nc2nc(Nc3ccc(F)c(Cl)c3)nc3cccnc23)CC1,86,11500,134,–
CN1CCN(CCNc2nc(Nc3ccc(Cl)c(F)c3)nc3cccnc23)CC1,96,12300,128,–
Clc1cc(Nc2nc(NCc3ccccc3)c3ccccc3n2)ccc1Br,40,2900,137,EC50 [12]: 128 nM
CCOc1ccc(Nc2nc(NCc3ccccc3)c3ccccc3n2)cc1,29,4500,159,–
CNc1nc(Nc2ccc(OC)cc2)nc2ccccc12,168,26100,155,–
CN1CCC(Nc2nc(Nc3ccc(F)cc3)nc3ccccc23)CC1,227,11500,51,–
Cn1cnc2nc(Nc3ccc(F)cc3)nc(NCc3ccccc3)c21,7,9000,1200,–
CN1CCN(CCNc2nc(Nc3ccc(F)cc3)nc3ccccc23)CC1,362,15300,42,EC50 [12]: 122 nM
COc1ccc(Nc2nc(NCC3CCCO3)c3ccccc3n2)c(OC)c1 (configuration not stated),19,15800,1100,–
CN(C)CCNc1nc(Nc2ccc(F)cc2)nc2ccccc12,267,27900,104,–
Fc1ccc(Nc2nc(NCc3ccccc3)c3ccccc3n2)cc1Cl,114,6300,56,EC50 [12]: 80 nM
FC(F)(F)c1ccc(Nc2nc(NCc3ccccc3)c3ccccc3n2)cn1,87,8900,102,–
NC(=O)c1ccc(Nc2nc(NCc3ccco3)c3ccccc3n2)cc1,35,20000,569,–
CN1CCC(Nc2nc(Nc3ccc(Cl)c(F)c3)nc3cccnc23)CC1,39,11100,283,–
c1ccc2c(NCC3CCCO3)nc(Nc3ccc4c(c3)OCO4)nc2c1 (configuration not stated),51,8600,169,–
COc1ccc(Nc2nc(N3CCOCC3)c3ccccc3n2)cc1,3,25600,7700,–
NC(=O)c1ccc(Nc2nc(NCC3CCCO3)c3ccccc3n2)cc1 (configuration not stated),50,34600,691,–
Cc1ccc(Nc2nc(NCc3ccco3)c3ccccc3n2)cc1,54,5900,109,–
Clc1ccc(Nc2nc(NCc3ccco3)c3ccccc3n2)cc1,71,7400,–,–

SMILES,selectivity ratio [1],EC50 [2] [nM],EC50 [3] [nM],also measured
Brc1ccc(Nc2nc(NCc3ccco3)c3ccccc3n2)cc1,153,19000,125,–
Cn1ncc2c(NCc3ccccc3)nc(Nc3ccc(F)cc3)nc21,3,26000,7600,–
Fc1ccc(Nc2nc(NCCN3CCCC3)c3ccccc3n2)cc1,343,26500,77,–
Fc1ccc(Nc2nc(NCc3ccco3)c3ccccc3n2)cc1,43,4900,112,–
Fc1ccccc1Nc1nc(NCC2CCCO2)c2ccccc2n1 (configuration not stated),75,21300,317,–
CN(C)c1nc(Nc2ccc(F)cc2)nc2ccccc12,48,20100,418,–
Fc1ccc(Nc2nc(NCCN3CCOCC3)c3ccccc3n2)cc1,256,30100,118,–
Fc1cc(Nc2nc(NCc3ccccc3)c3ccccc3n2)ccc1Cl,55,6600,121,EC50 [12]: 75 nM
Fc1cccc(Nc2nc(NCC3CCCO3)c3ccccc3n2)c1 (configuration not stated),39,8600,144,–
COc1ccc2nc3cc(Cl)ccc3c(Nc3cc(CN4CCCC4)c(O)c(CN4CCCC4)c3)c2n1 [PYRONARIDINE],–,–,–,EC50 [13]: 25 nM; EC50 [14]: 1400 nM; EC50 [15]: 16 nM
COc1ccccc1Nc1nc(NCC2CCCO2)c2ccccc2n1 (configuration not stated),47,24500,526,–
COC(=O)c1ccc(Nc2nc(NCc3ccco3)c3ccccc3n2)cc1,58,33500,574,–
Fc1ccc(Nc2nc(NCc3ccccc3)c3sccc3n2)cc1,–,18700,866,–
FC(F)(F)c1ccc(Nc2nc(NCc3ccccc3)c3ccccc3n2)cc1,–,6400,105,–
CC(=O)Nc1ccc(Nc2nc(NCC3CCCO3)c3ccccc3n2)cc1 (configuration not stated),140,38300,274,–
Clc1cccc(Nc2nc(NCc3ccco3)c3ccccc3n2)c1,37,5000,134,–
CC(O)c1ccc(Nc2nc(NCc3ccco3)c3ccccc3n2)cc1 (configuration not stated),–,12600,702,–
CN1CCN(C(=O)CNc2nc(Nc3ccc(F)cc3)nc3ccccc23)CC1,473,30400,64,–
Fc1ccc(Nc2nc(NCc3ccccc3)c3ccncc3n2)cc1,33,17800,539,–
Fc1ccc(Nc2nc(NCc3ccccc3)c3ncccc3n2)cc1,320,18200,57,–
CN1CCN(CCNc2nc(Nc3ccc(F)c(Cl)c3)nc3cccnc23)CC1,80,8900,110,–
Fc1ccc(Nc2nc(NCc3ccccc3)c3ccccc3n2)cc1,67,5100,77,–
COc1cc([C@@H]2c3cc4c(cc3[C@@H](O[C@@H]3O[C@@H]5CO[C@@H](C)O[C@H]5[C@H](O)[C@H]3O)[C@H]3COC(=O)[C@H]23)OCO4)cc(OC)c1O [ETOPOSIDE],–,15900,–,–
CNc1nc(Nc2ccc(F)cc2)nc2ccccc12,119,16200,136,–
